ChEMBL document CHEMBL3797129, “Dysiherbols A-C and Dysideanone E, Cytotoxic and NF-κB Inhibitory Tetracyclic Meroterpenes from a Dysidea sp. Marine Sponge” (J Nat Prod, 2016)

What was measured:
[1] = Cytotoxicity against human NCI-H929 cells after 48 hrs by MTS assay; assay type: functional, cell-based; settings: NCI-H929, 48 h
[2] = Inhibition of TNF alpha-induced NF-kappaB (unknown origin) activation in HEK293 cells after 6 hrs by luciferase reporter gene assay; assay type: cell-based; settings: Homo sapiens, HEK293, 6 h

Work on `C=C1CC[C@H]2[C@H]3[C@](C)(CC4=CC(=O)C=C[C@@]42O)[C@@H](C)CC[C@]13C` yielded an IC50 [1] of 25 µM and an IC50 [2] of over 10 µM.
With `CC1=CCC[C@H]2[C@](C)(Cc3cc(O)ccc3O)[C@@H](C)CC[C@]12C` [AVAROL] the IC50 [1] was 3.32 µM and the IC50 [2] was over 10 µM.
Compound `C[C@@H]1CC[C@]2(C)[C@@]3(CCC[C@]2(C)O)c2c(O)ccc(O)c2C[C@@]13C` has an IC50 [1] of 0.58 µM and an IC50 [2] of 0.49 µM.
`C[C@@H]1CC[C@]2(C)[C@@]3(CC[C@H](O)[C@]2(C)O)c2c(O)ccc(O)c2C[C@@]13C` showed an IC50 [1] of 15 µM and an IC50 [2] of 5.9 µM.
Compound `COc1ccc([C@@]23Oc4cc(OC)cc(OC)c4[C@]2(O)[C@H](O)[C@H](C(=O)N(C)C)[C@H]3c2ccccc2)cc1` [ROCAGLAMIDE] has an IC50 [1] of 3.9 µM and an IC50 [2] of 2.6 µM.
Compound `C[C@@H]1CC[C@]2(C)[C@@]3(CCC(=O)[C@]2(C)O)c2c(O)ccc(O)c2C[C@@]13C` has an IC50 [1] of 12 µM and an IC50 [2] of 6.4 µM.
